Measurements from patent publication US6358885B1, “Substituted phenylheterocyclic herbicides” (Mississippi State University, priority 1992, dated 2002).

Assays:
[1] = test system: cotton; test: Test B preemergence/postemergence greenhouse plant response rating 0 to 10; format: in vivo, Gossypium hirsutum; conditions: 0 to 10 scale
Procedure, shortened: (§1)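 Test chemicals, dissolved in a non-phytotoxic solvent, were applied to soil at planting and, at the same time, over foliage of seedlings at the one to four leaf stage.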

[2] = test system: soybean; test: Test C preemergence/postemergence greenhouse plant response rating 0 to 100; format: in vivo, Glycine max; conditions: POSTEMERGENCE; for Plant response rating, Soybean: 0 to 100 scale
Procedure, shortened: (§2)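 Compounds in non-phytotoxic solvent applied preemergence to sandy loam one day after planting, postemergence at the 1–4 leaf stage, or to ~2.5 cm floodwater over silt loam.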

[3] = test system: rape; test: Test B preemergence/postemergence greenhouse plant response rating 0 to 10; format: in vivo, Brassica napus; conditions: 0 to 10 scale
Procedure, shortened: as §1

[4] = test system: barley; test: Test C preemergence/postemergence greenhouse plant response rating 0 to 100; format: in vivo, Hordeum vulgare; conditions: POSTEMERGENCE; for Plant response rating Barley Igri: 0 to 100 scale
Procedure, shortened: as §2

[5] = test system: cotton; test: as above; format: in vivo, Gossypium hirsutum; conditions: POSTEMERGENCE; for Plant response rating, Cotton: 0 to 100 scale
Procedure, shortened: as §2

[6] = test system: giant foxtail; test: Test B preemergence/postemergence greenhouse plant response rating 0 to 10; format: in vivo, Setaria faberii; conditions: 0 to 10 scale
Procedure, shortened: as §1

[7] = test system: umbrella sedge; test: Test C flood test plant response rating 0 to 100; format: in vivo, Cyperus difformis; conditions: for Plant response rating (0 to 100), Umbrella sedge: under POSTEMERGENCE head (flood test species); for Plant response rating Umbrella sedge: flood test species listed under POSTEMERGENCE, 0 to 100 scale
Procedure, shortened: as §2

[8] = test system: crabgrass; test: Test B preemergence/postemergence greenhouse plant response rating 0 to 10; format: in vivo, Digitaria spp.; conditions: 0 to 10 scale
Procedure, shortened: as §1

[9] = test system: morningglory; test: as above; format: in vivo, Ipomoea hederacea; conditions: 0 to 10 scale
Procedure, shortened: as §1

[10] = test system: chickweed; test: Test C preemergence/postemergence greenhouse plant response rating 0 to 100; format: in vivo, Stellaria media; conditions: POSTEMERGENCE; for Plant response rating, Chickweed: 0 to 100 scale
Procedure, shortened: as §2

[11] = test system: cocklebur; test: Test B preemergence/postemergence greenhouse plant response rating 0 to 10; format: in vivo, Xanthium pensylvanicum; conditions: 0 to 10 scale
Procedure, shortened: as §1

[12] = test system: duck salad; test: Test C flood test plant response rating 0 to 100; format: in vivo, Heteranthera limosa; conditions: for Plant response rating (0 to 100), Duck salad: under POSTEMERGENCE head (flood test species); for Plant response rating Duck salad: flood test species listed under POSTEMERGENCE, 0 to 100 scale
Procedure, shortened: as §2

[13] = test system: giant foxtail; test: Test C preemergence/postemergence greenhouse plant response rating 0 to 100; format: in vivo, Setaria faberii; conditions: POSTEMERGENCE; for Plant response rating, Giant foxtail: 0 to 100 scale
Procedure, shortened: as §2

[14] = test system: velvetleaf; test: as above; format: in vivo, Abutilon theophrasti; conditions: POSTEMERGENCE; for Plant response rating, Velvetleaf: 0 to 100 scale
Procedure, shortened: as §2

[15] = test system: pigweed; test: as above; format: in vivo, Amaranthusretroflexus; conditions: POSTEMERGENCE; for Plant response rating Pigweed: 0 to 100 scale
Procedure, shortened: as §2

[16] = test system: cheatgrass; test: Test B preemergence/postemergence greenhouse plant response rating 0 to 10; format: in vivo, Bromus secalinus; conditions: 0 to 10 scale
Procedure, shortened: as §1

[17] = test system: bedstraw; test: as above; format: in vivo, Galium aparine; conditions: 0 to 10 scale
Procedure, shortened: as §1

[18] = test system: lambsquarters; test: Test C preemergence/postemergence greenhouse plant response rating 0 to 100; format: in vivo, Chenopodium album; conditions: POSTEMERGENCE; for Plant response rating Lambsquarters: 0 to 100 scale
Procedure, shortened: as §2

## C=CCN1C(=O)COc2cc(F)c(-c3nn4c(c3Br)CCCC4)cc21 [Compound 41]
[1]; POSTEMERGENCE, Rate 50 g/ha
  Plant response rating, Cotton: 10
[1]; POSTEMERGENCE, Rate 200 g/ha
  Plant response rating, Cotton: 10
[1]; PREEMERGENCE, Rate 50 g/ha
  Plant response rating, Cotton: 4
[1]; Rate 200 g/ha, PREEMERGENCE
  Plant response rating, Cotton: 2
[2]; 62 g/ha
  Plant response rating, Soybean: 70
[2]; 125 g/ha
  Plant response rating, Soybean: 100
[2]; Rate 16 g/ha
  Plant response rating (0 to 100), Soybean: 60
[2]; Rate 31 g/ha
  Plant response rating (0 to 100), Soybean: 70
[3]; POSTEMERGENCE, Rate 50 g/ha
  Plant response rating, Rape: 10
[3]; PREEMERGENCE, Rate 50 g/ha
  Plant response rating, Rape: 10
[3]; Rate 200 g/ha, POSTEMERGENCE
  Plant response rating, Rape: 10
[3]; Rate 200 g/ha, PREEMERGENCE
  Plant response rating, Rape: 10
[4]; 62 g/ha
  Plant response rating Barley Igri: 50
[4]; 125 g/ha
  Plant response rating Barley Igri: 60
[4]; Rate 16 g/ha
  Plant response rating (0 to 100), Barley Igri: 30
[4]; Rate 31 g/ha
  Plant response rating (0 to 100), Barley Igri: 40
[5]; 62 g/ha
  Plant response rating, Cotton: 100
[5]; 125 g/ha
  Plant response rating, Cotton: 100
[5]; Rate 16 g/ha
  Plant response rating (0 to 100), Cotton: 100
[5]; Rate 31 g/ha
  Plant response rating (0 to 100), Cotton: 100
[6]; POSTEMERGENCE, Rate 50 g/ha
  Plant response rating, Giant foxtail: 4
[6]; PREEMERGENCE, Rate 50 g/ha
  Plant response rating, Giant foxtail: 1
[6]; Rate 200 g/ha, POSTEMERGENCE
  Plant response rating, Giant foxtail: 5
[6]; Rate 200 g/ha, PREEMERGENCE
  Plant response rating, Giant foxtail: 3
[7]; Rate 16 g/ha
  Plant response rating (0 to 100), Umbrella sedge: 60
[7]; Rate 31 g/ha
  Plant response rating (0 to 100), Umbrella sedge: 60
[7]; 62 g/ha
  Plant response rating Umbrella sedge: 80
[7]; 125 g/ha
  Plant response rating Umbrella sedge: 90
[8]; POSTEMERGENCE, Rate 50 g/ha
  Plant response rating, Crabgrass: 3
[8]; POSTEMERGENCE, Rate 200 g/ha
  Plant response rating, Crabgrass: 5
[8]; PREEMERGENCE, Rate 50 g/ha
  Plant response rating, Crabgrass: 0
[8]; Rate 200 g/ha, PREEMERGENCE
  Plant response rating, Crabgrass: 6
[9]; POSTEMERGENCE, Rate 50 g/ha
  Plant response rating, Morningglory: 9
[9]; PREEMERGENCE, Rate 50 g/ha
  Plant response rating, Morningglory: 0
[9]; Rate 200 g/ha, POSTEMERGENCE
  Plant response rating, Morningglory: 10
[9]; Rate 200 g/ha, PREEMERGENCE
  Plant response rating, Morningglory: 7
[10]; 62 g/ha
  Plant response rating, Chickweed: 100
[10]; 125 g/ha
  Plant response rating, Chickweed: 100
[10]; Rate 16 g/ha
  Plant response rating (0 to 100), Chickweed: 90
[10]; Rate 31 g/ha
  Plant response rating (0 to 100), Chickweed: 90
[11]; POSTEMERGENCE, Rate 50 g/ha
  Plant response rating, Cocklebur: 10
[11]; POSTEMERGENCE, Rate 200 g/ha
  Plant response rating, Cocklebur: 10
[11]; PREEMERGENCE, Rate 50 g/ha
  Plant response rating, Cocklebur: 2
[11]; Rate 200 g/ha, PREEMERGENCE
  Plant response rating, Cocklebur: 5
[12]; Rate 16 g/ha
  Plant response rating (0 to 100), Duck salad: 0
[12]; Rate 31 g/ha
  Plant response rating (0 to 100), Duck salad: 10
[12]; 62 g/ha
  Plant response rating Duck salad: 30
[12]; 125 g/ha
  Plant response rating Duck salad: 30
[13]; 62 g/ha
  Plant response rating, Giant foxtail: 30
[13]; 125 g/ha
  Plant response rating, Giant foxtail: 50
[13]; Rate 16 g/ha
  Plant response rating (0 to 100), Giant foxtail: 20
[13]; Rate 31 g/ha
  Plant response rating (0 to 100), Giant foxtail: 30
[14]; 62 g/ha
  Plant response rating, Velvetleaf: 100
[14]; 125 g/ha
  Plant response rating, Velvetleaf: 100
[14]; Rate 16 g/ha
  Plant response rating (0 to 100), Velvetleaf: 100
[14]; Rate 31 g/ha
  Plant response rating (0 to 100), Velvetleaf: 100
[15]; 62 g/ha
  Plant response rating Pigweed: 100
[15]; 125 g/ha
  Plant response rating Pigweed: 100
[15]; Rate 16 g/ha
  Plant response rating (0 to 100), Pigweed: 90
[15]; Rate 31 g/ha
  Plant response rating (0 to 100), Pigweed: 100
[16]; POSTEMERGENCE, Rate 50 g/ha
  Plant response rating, Cheatgrass: 3
[16]; POSTEMERGENCE, Rate 200 g/ha
  Plant response rating, Cheatgrass: 5
[16]; PREEMERGENCE, Rate 50 g/ha
  Plant response rating, Cheatgrass: 3
[16]; Rate 200 g/ha, PREEMERGENCE
  Plant response rating, Cheatgrass: 5
[17]; POSTEMERGENCE, Rate 50 g/ha
  Plant response rating, Bedstraw: 10
[17]; POSTEMERGENCE, Rate 200 g/ha
  Plant response rating, Bedstraw: 10
[17]; PREEMERGENCE, Rate 50 g/ha
  Plant response rating, Bedstraw: 2
[17]; Rate 200 g/ha, PREEMERGENCE
  Plant response rating, Bedstraw: 10
[18]; 62 g/ha
  Plant response rating Lambsquarters: 100
[18]; 125 g/ha
  Plant response rating Lambsquarters: 100
[18]; Rate 16 g/ha
  Plant response rating (0 to 100), Lambsquarters: 85
[18]; Rate 31 g/ha
  Plant response rating (0 to 100), Lambsquarters: 100
